# Results published in patent US20260285850A1, “SUBSTITUTED OXAZOLIDINONES AND IMIDAZOLINONES AS HERBICIDES” (FMC CORPORATION, priority 2023, published 2026).
# Experiments:
# Type in all cases: in vivo
# [1] = tested on: oat, wild (wild oat, Avena fatua); test: Test A preemergence soil spray, visual injury rating 0-100; conditions: 10 days
# How it was run: (§1)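 Greenhouse test: loam/sand pots received a surfactant-containing formulation, as a preemergence directed soil spray or a postemergence spray on young plants. Injury was judged visually at day 10 relative to untreated controls.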
# kochia (Bassia scoparia) [2] = test: as above; conditions: 10 days
# How it was run: as §1
# soybean (Glycine max) [3] = test: as above; conditions: 10 days
# How it was run: as §1
# corn (Zea mays) [4] = test: as above; conditions: 10 days
# How it was run: as §1
# [5] = tested on: green foxtail (Setaria viridis); test: as above; conditions: 10 days
# How it was run: as §1
# [6] = tested on: palmer (palmer amaranth, palmer pigweed, Amaranthus palmeri); test: as above; conditions: 10 days
# How it was run: as §1
# [7] = tested on: ryegrass, Italian (italian ryegrass, Lolium multiflorum); test: as above; conditions: 10 days
# How it was run: as §1
# [8] = tested on: wheat (Triticum aestivum); test: as above; conditions: 10 days
# How it was run: as §1
# [9] = tested on: blackgrass (Alopecurus myosuroides); test: as above; conditions: 10 days
# How it was run: as §1
# [10] = tested on: ragweed (common ragweed, Ambrosia artemisiifolia); test: as above; conditions: 10 days
# How it was run: as §1
# [11] = tested on: barnyardgrass (Echinochloa crus-galli); test: as above; conditions: 10 days
# How it was run: as §1
# [12] = tested on: oat, wild (wild oat, Avena fatua); test: Test A postemergence application, visual injury rating 0-100
# How it was run: as §1
# kochia (Bassia scoparia) [13] = test: as above
# How it was run: as §1
# [14] = tested on: galium (catchweed bedstraw, Galium aparine); test: as above
# How it was run: as §1
# soybean (Glycine max) [15] = test: as above
# How it was run: as §1
# corn (Zea mays) [16] = test: as above
# How it was run: as §1
# [17] = tested on: green foxtail (Setaria viridis); test: as above
# How it was run: as §1
# [18] = tested on: palmer (palmer amaranth, palmer pigweed, Amaranthus palmeri); test: as above
# How it was run: as §1
# [19] = tested on: ryegrass, Italian (italian ryegrass, Lolium multiflorum); test: as above
# How it was run: as §1
# [20] = tested on: wheat (Triticum aestivum); test: as above
# How it was run: as §1
# [21] = tested on: blackgrass (Alopecurus myosuroides); test: as above
# How it was run: as §1
# [22] = tested on: ragweed (common ragweed, Ambrosia artemisiifolia); test: as above
# How it was run: as §1
# [23] = tested on: barnyardgrass (Echinochloa crus-galli); test: as above
# How it was run: as §1
# [24] = tested on: ducksalad (Heteranthera limosa); test: Test B flooded paddy test, visual plant response rating 0-100; conditions: 250 g ai/ha, Flood, applied to paddy water, evaluated after 13 days
# How it was run: (§2)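 Greenhouse, 13 d. Seedlings at 2-leaf stage, pots flooded to 3 cm, compound delivered into floodwater, water level held constant. Evaluated visually relative to controls.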
# [25] = tested on: barnyardgrass (Echinochloa crusgalli); test: as above; conditions: 250 g ai/ha, Flood, applied to paddy water, evaluated after 13 days
# How it was run: as §2
# [26] = tested on: sedge, umbrella (small-flower umbrella sedge, Cyperus difformis); test: as above; conditions: 250 g ai/ha, Flood, applied to paddy water, evaluated after 13 days
# How it was run: as §2
# rice (Oryza sativa) = test: as above; conditions: 250 g ai/ha, Flood, applied to paddy water, evaluated after 13 days
# How it was run: as §2
# [27] = 62 g ai/ha, 0 = no effect, 100 = complete control
# [28] = 62 g ai/ha, postemergence, 10 days, 0 = no effect, 100 = complete control
# [29] = Postemergence, 16 g ai/ha, greenhouse 10 days, 0 no effect, 100 complete control
compound,measurement,setting,value
COC(=O)C1=CCC(NC(=O)C2(C)CN(c3cc(F)c(F)c(F)c3)C(=O)O2)C1 (mixture of isomers) [Compound 163],"Oat, Wild plant response rating","[1]; 16 g ai/ha, 0 to 100 scale",0
same,"Oat, Wild plant response rating (0-100)",[1]; [27],20
same,Kochia plant response rating,"kochia (Bassia scoparia) [2]; 16 g ai/ha, 0 to 100 scale",0
same,Kochia plant response rating (0-100),kochia (Bassia scoparia) [2]; [27],0
same,Soybean plant response rating,"soybean (Glycine max) [3]; 16 g ai/ha, 0 to 100 scale",0
same,Soybean plant response rating (0-100),soybean (Glycine max) [3]; [27],0
same,Corn plant response rating,"corn (Zea mays) [4]; 16 g ai/ha, 0 to 100 scale",0
same,Corn plant response rating (0-100),corn (Zea mays) [4]; [27],70
same,"Foxtail, Green plant response rating","[5]; 16 g ai/ha, 0 to 100 scale",0
same,"Foxtail, Green plant response rating (0-100)",[5]; [27],20
same,"Pigweed, Palmer plant response rating","[6]; 16 g ai/ha, 0 to 100 scale",0
same,"Pigweed, Palmer plant response rating (0-100)",[6]; [27],0
same,"Ryegrass, Italian plant response rating","[7]; 16 g ai/ha, 0 to 100 scale",0
same,"Ryegrass, Italian plant response rating (0-100)",[7]; [27],80
same,Wheat plant response rating,"[8]; 16 g ai/ha, 0 to 100 scale",20
same,Wheat plant response rating (0-100),[8]; [27],80
same,Blackgrass plant response rating,"[9]; 16 g ai/ha, 0 to 100 scale",0
same,Blackgrass plant response rating (0-100),[9]; [27],0
same,Ragweed plant response rating,"[10]; 16 g ai/ha, 0 to 100 scale",0
same,Ragweed plant response rating (0-100),[10]; [27],10
same,Barnyardgrass plant response rating,"[11]; 16 g ai/ha, 0 to 100 scale",0
same,Barnyardgrass plant response rating (0-100),[11]; [27],20
same,"Oat, Wild plant response rating (0-100)",[12]; [28],90
same,"Oat, Wild plant response rating (0 to 100 scale)",[12]; [29],30
same,Kochia plant response rating (0-100),kochia (Bassia scoparia) [13]; [28],90
same,Kochia plant response rating (0 to 100 scale),kochia (Bassia scoparia) [13]; [29],20
same,Galium plant response rating (0-100),[14]; [28],70
same,Galium plant response rating (0 to 100 scale),[14]; [29],40
same,Soybean plant response rating (0-100),soybean (Glycine max) [15]; [28],70
same,Soybean plant response rating (0 to 100 scale),soybean (Glycine max) [15]; [29],50
same,Corn plant response rating (0-100),corn (Zea mays) [16]; [28],100
same,Corn plant response rating (0 to 100 scale),corn (Zea mays) [16]; [29],90
same,"Foxtail, Green plant response rating (0-100)",[17]; [28],90
same,"Foxtail, Green plant response rating (0 to 100 scale)",[17]; [29],50
same,"Pigweed, Palmer plant response rating (0-100)",[18]; [28],80
same,"Pigweed, Palmer plant response rating (0 to 100 scale)",[18]; [29],10
same,"Ryegrass, Italian plant response rating (0-100)",[19]; [28],80
same,"Ryegrass, Italian plant response rating (0 to 100 scale)",[19]; [29],60
same,Wheat plant response rating (0-100),[20]; [28],70
same,Wheat plant response rating (0 to 100 scale),[20]; [29],30
same,Blackgrass plant response rating (0-100),[21]; [28],70
same,Blackgrass plant response rating (0 to 100 scale),[21]; [29],20
same,Ragweed plant response rating (0-100),[22]; [28],0
same,Ragweed plant response rating (0 to 100 scale),[22]; [29],0
same,Barnyardgrass plant response rating (0-100),[23]; [28],100
same,Barnyardgrass plant response rating (0 to 100 scale),[23]; [29],70
same,"Plant response rating, Ducksalad (0 to 100 scale, 0 is no effect and 100 is complete control)",[24],85
same,"Plant response rating, Barnyardgrass (0 to 100 scale, 0 is no effect and 100 is complete control)",[25],55
same,"Plant response rating, Sedge, Umbrella (0 to 100 scale, 0 is no effect and 100 is complete control)",[26],85
same,"Plant response rating, Rice (0 to 100 scale, 0 is no effect and 100 is complete control)",rice (Oryza sativa),60
